Experimental data taken from patent publication US8541572B2.

System: TNF-α production in LPS-stimulated human whole blood
Experiment: Inhibition of TNF-α production from human whole blood (hWBA)
Format: cell-based
Conditions: Homo sapiens, IC50 for TNF-α production, LPS-stimulated human whole blood; read-out: hWBA

COc1ccc2c(c1)C(=O)N(C[C@@]1(C#Cc3ccc(C4(C5CCC5)NC(=O)NC4=O)cc3)NC(=O)NC1=O)C2 (stereo partly drawn) [Compound 906] and COC(=O)Cc1ccc(C#C[C@]2(CN3Cc4ccc(OC)cc4C3=O)NC(=O)NC2=O)cc1 [Compound 2284] are within 1.5-fold of each other in IC50: 382 nM for the first, 379 nM for the second.

Compared with CCN1CCN(C(=NO)c2cncc(C#C[C@]3(CN4Cc5ccc(OC)cc5C4=O)NC(=O)NC3=O)c2)CC1 [Compound 923], COc1ccc2c(c1)C(=O)N(C[C@@]1(C#Cc3ccc(C(=NO)N4CCN(C)CC4)cc3)NC(=O)NC1=O)C2 [Compound 943] is 6.7-fold lower in IC50: 435 nM for the first, 65 nM for the second.

Compared with COc1ccc2c(c1)C(=O)N(C[C@@]1(C#Cc3cccc(C(=NO)N4CCOCC4)c3)NC(=O)NC1=O)C2 [Compound 916], COc1ccc2c(c1)C(=O)N(C[C@@]1(C#Cc3ccc(C(=NO)N4CCCCC4)cc3)NC(=O)NC1=O)C2 [Compound 946] is 1.8-fold lower in IC50: 274 nM for the first, 154 nM for the second. The second is the more potent here.

COc1ccc2c(c1)C(=O)N(C[C@@]1(C#Cc3ccc(C(=NO)N4CCN(C5CCCCCC5)CC4)cc3)NC(=O)NC1=O)C2 [Compound 927] showed an IC50 of 151 nM.

Same assay, conditions: Homo sapiens, IC50 for inhibition of TNF-α production, LPS-stimulated human whole blood; read-out: hWBA

Going from COc1ccc2c(c1)C(=O)N(C[C@@]1(C#Cc3ccc(OC)nc3OC)NC(=O)NC1=O)C2 [Compound 2230] to COc1ccc2c(c1)C(=O)N(C[C@@]1(C#Cc3cnc(N)nc3N)NC(=O)NC1=O)C2 [Compound 2209], the IC50 rises from 1000 nM to 1600 nM (1.6-fold). The first is the more potent here.

COc1ccc2c(c1)C(=O)N(C[C@@]1(C#Cc3ccccc3C=O)NC(=O)NC1=O)C2 [Compound 1918] and COc1ccc2c(c1)C(=O)N(C[C@@]1(C#Cc3ccc(-c4ccccc4O)cc3)NC(=O)NC1=O)C2 [Compound 969] are within 1.5-fold of each other in IC50: 936 nM for the first, 652 nM for the second.

Compared with COc1ccc2c(c1F)C(=O)N(C[C@@]1(C#Cc3ccc(CN4CCN(c5ccncc5)CC4)cc3)NC(=O)NC1=O)C2 [Compound 981], COc1ccc2c(c1F)C(=O)N(C[C@@]1(C#Cc3ccc(-c4cccc(N5CCN(C6CCCCC6)CC5)n4)c(F)c3)NC(=O)NC1=O)C2 [Compound 994] is 8.4-fold higher in IC50: 290 nM for the first, 2430 nM for the second.

Going from COc1ccc(N2CCC2=O)nc1C#C[C@]1(CN2Cc3ccc(OC)c(F)c3C2=O)NC(=O)NC1=O [Compound 1508] to COc1ccc2c(c1F)C(=O)N(C[C@@]1(C#Cc3ccc(C(CN)N4CCC(NC(=O)OC(C)(C)C)C4)cc3)NC(=O)NC1=O)C2 (stereo partly drawn) [Compound 1702], the IC50 falls from 1170 nM to 303 nM (3.9-fold).

First: COc1ccc2c(c1)C(=O)N(C[C@@]1(C#Cc3ccc(-n4cncn4)cc3)NC(=O)NC1=O)C2 [Compound 1170]
Second: COc1ccc2c(c1)C(=O)N(C[C@@]1(C#Cc3ccc(-c4ccc(F)cc4O)nc3)NC(=O)NC1=O)C2 [Compound 1316]
The IC50 of the first is 8.3-fold lower: 1140 nM for the first, 9460 nM for the second. The first is the more potent here.

Compared with COc1ccc2c(c1)C(=O)N(C[C@@]1(C#Cc3ccc(-n4cnc(CCNC(C)=O)c4)nc3)NC(=O)NC1=O)C2 [Compound 1130], CCN1CCN(C(=NO)c2cnc(C#C[C@]3(CN4Cc5ccc(OC)cc5C4=O)NC(=O)NC3=O)c(OC)c2)CC1 [Compound 1923] is 2.6-fold lower in IC50: 524 nM for the first, 204 nM for the second.

Same assay, conditions: IC50 for TNF-α production, LPS-stimulated human whole blood; read-out: hWBA

Going from COc1ccc2c(c1)C(=O)N(C[C@@]1(C#Cc3ccc(C(=NO)N4CCN(C)CC4)s3)NC(=O)NC1=O)C2 [Compound 951] to CCN1CCN(C(=NO)c2ccc(C#C[C@]3(CN4Cc5ccc(OC)cc5C4=O)NC(=O)NC3=O)cn2)CC1 [Compound 954], the IC50 falls from 220 nM to 87 nM (2.5-fold). The second is the more potent here.

First: COc1ccc2c(c1)C(=O)N(C[C@@]1(C#Cc3cccnc3-c3c(C)nn(C)c3C)NC(=O)NC1=O)C2 [Compound 2264]
Second: COc1ccc2c(c1)C(=O)N(C[C@@]1(C#Cc3cccnc3)NC(=O)NC1=O)CC2 [Compound 2318]
The IC50 of the first is 3.9-fold lower: 2540 nM for the first, 10000 nM for the second. The first is the more potent here.

Going from CCN1CCN(C(CO)c2ccc(C#C[C@]3(CN4Cc5ccc(OC)cc5C4=O)NC(=O)NC3=O)cc2)CC1 (stereo partly drawn) [Compound 930] to CCCCN1CCN(C(=NO)c2ccc(C#C[C@]3(CN4Cc5ccc(OC)cc5C4=O)NC(=O)NC3=O)cc2)CC1 [Compound 925], the IC50 falls from 504 nM to 74 nM (6.8-fold).

COc1ccc2c(c1)C(=O)N(C[C@@]1(C#Cc3ccc(-c4ccccc4O)cc3)NC(=O)NC1=O)C2 [Compound 955] and CNC(=O)C1(c2ccc(C#C[C@]3(CN4Cc5ccc(OC)cc5C4=O)NC(=O)NC3=O)cc2)CC1 [Compound 2261] are within 1.5-fold of each other in IC50: 652 nM for the first, 443 nM for the second.

COc1ccc2c(c1)C(=O)N(C[C@@]1(C#Cc3csc(C4(C)NC(=O)NC4=O)c3)NC(=O)NC1=O)C2 (stereo partly drawn) [Compound 908] showed an IC50 of 531 nM.

Same assay, conditions: IC50 for inhibition of TNF-α production, LPS-stimulated human whole blood; read-out: hWBA

Going from COc1ccc2c(c1)C(=O)N(C[C@@]1(C#Cc3ccc(-c4nnc(N)o4)cc3)NC(=O)NC1=O)C2 [Compound 1919] to COc1ccc2c(c1)C(=O)N(C[C@@]1(C#Cc3ccc(-c4cc(N)[nH]n4)cc3)NC(=O)NC1=O)C2 [Compound 747], the IC50 falls from 244 nM to 128 nM (1.9-fold). The second is the more potent here.

Going from COc1ccc2c(c1)C(=O)N(C[C@@]1(C#Cc3ccc(N(c4cccnc4)C4CCNCC4)nc3)NC(=O)NC1=O)C2 [Compound 2200] to COc1ccc2c(c1)C(=O)N(C[C@@]1(C#Cc3ccc(CC4CCN(C)CC4)nc3)NC(=O)NC1=O)C2 [Compound 739], the IC50 falls from 430 nM to 195 nM (2.2-fold).

Going from COc1ccc2c(c1)C(=O)N(C[C@@]1(C#Cc3ccc(N4CCNC4=O)cc3)NC(=O)NC1=O)C2 [Compound 1150] to COc1ccc2c(c1)C(=O)N(C[C@@]1(C#Cc3ccc(CCN)cc3)NC(=O)NC1=O)C2 [Compound 2202], the IC50 falls from 1620 nM to 219 nM (7.4-fold). The second is the more potent here.

Compared with COc1ccc2c(c1)C(=O)N(C[C@@]1(C#Cc3nc(-c4n[nH]c(=O)n4C4CCN(C)CC4)ccc3OC)NC(=O)NC1=O)C2 [Compound 1900], COc1ccc2c(c1)C(=O)N(C[C@@]1(C#Cc3nc(N4CC[C@H](O)C4=O)ccc3OC)NC(=O)NC1=O)C2 [Compound 1504] is 1.6-fold higher in IC50: 2190 nM for the first, 3590 nM for the second.

First: CCN1CCN(c2cccc(-c3ccc(C#C[C@]4(CN5Cc6ccc(OC)c(F)c6C5=O)NC(=O)NC4=O)cc3F)n2)CC1 [Compound 992]
Second: COc1ccc2c(c1F)C(=O)N(C[C@@]1(C#Cc3ccc(-c4cccc(N5CCSCC5)n4)cc3)NC(=O)NC1=O)C2 [Compound 999]
The IC50 of the first is 5.1-fold lower: 808 nM for the first, 4150 nM for the second. The first is the more potent here.

First: CCN1CCN(C(=O)C2CCC(=O)N2c2ccc(OC)c(C#C[C@]3(CN4Cc5ccc(OC)cc5C4=O)NC(=O)NC3=O)n2)CC1 (stereo partly drawn) [Compound 1917]
Second: CCN1CCN(C(=O)C2CCC(=O)N2c2ccc(C#C[C@]3(CN4Cc5ccc(OC)c(F)c5C4=O)NC(=O)NC3=O)cc2)CC1 (stereo partly drawn) [Compound 1903]
The IC50 of the first is 22-fold higher: 3360 nM for the first, 152 nM for the second.

Going from COc1ccc2c(c1)C(=O)N(C[C@@]1(C#Cc3ccc(Nc4c(N)c(=O)c4=O)cc3)NC(=O)NC1=O)C2 [Compound 1308] to COc1ccc2c(c1)C(=O)N(C[C@@]1(C#Cc3ccc(Nc4c(NCCN5CCOCC5)c(=O)c4=O)cc3)NC(=O)NC1=O)C2 [Compound 1306], the IC50 falls from 306 nM to 169 nM (1.8-fold). The second is the more potent here.

COc1ccc2c(c1)C(=O)N(C[C@@]1(C#Cc3ccc(-n4cnc(CCNC(C)=O)c4)cc3)NC(=O)NC1=O)C2 [Compound 1120] and COc1ccc2c(c1)C(=O)N(C[C@@]1(C#Cc3ccc(-c4ncccc4OC(=O)C(C)(C)C)cc3)NC(=O)NC1=O)C2 [Compound 1008] are within 1.5-fold of each other in IC50: 453 nM for the first, 342 nM for the second.

Compared with COc1ccc2c(c1)C(=O)N(C[C@@]1(C#Cc3nc(-c4cccc(O)c4)ccc3OC)NC(=O)NC1=O)C2 [Compound 1922], COc1ccc2c(c1)C(=O)N(C[C@@]1(C#Cc3cncc(-c4csc(N)n4)c3)NC(=O)NC1=O)C2 [Compound 2233] is 12-fold lower in IC50: 9910 nM for the first, 811 nM for the second. The second is the more potent here.

Compared with COc1ccc2c(c1)C(=O)N(C[C@@]1(C#Cc3cnc(N4CCC(=O)CC4)nc3N)NC(=O)NC1=O)C2 [Compound 2210], CCN1CCN(C(=O)c2ccc(C#C[C@]3(CN4Cc5ccc(OC)c(F)c5C4=O)NC(=O)NC3=O)cc2)CC1 [Compound 964] is 3.3-fold lower in IC50: 1010 nM for the first, 308 nM for the second. The second is the more potent here.
